Columns and labels:
Elevated plus-maze test = type: in vivo, male Sprague-Dawley rats; settings: for minimal effective dose: Rattus norvegicus, 1 h, treated 60 minutes prior to the test, based on times spent in the open arms, read-out: MED (minimal effective dose), elevated plus maze; for effect in the elevated plus maze test (in words): rat, in vivo
Protocol: The elevated plus-maze consisted of two open and two 40 cm wall enclosed arms of the same size (50×15 cm) arranged in the shape of a cross. The arms of the same type were opposite to each other. The junction of the four arms forms a central square area (15×15 cm). The apparatus is made of wooden material elevated to a height of 50 cm from the floor and illuminated by a dim light from above.
Male Sprague-Dawley rats weighing 220-260 g were treated with the test or reference compounds 60 minutes prior to the test. They were then placed onto the central square area and were subjected to the test for 5 minutes. The following parameters were determined:
Time spent in the open arms;
Time spent in the closed arms;
Number of entries into the open arms;
Number of entries into the closed arms.
A compound was considered to be effective when significant increase was found either in the time spent in the open arms or in the number of entries into the open arms when compared to the control animals. Minimum Effective Doses (MED) were determined based on the times spent in the open arms for each compound examined (Table II) [Pelow et al., J. Neurosci. Methods, 14: 149-169, 1985].

Sigma = biological target: T1, Sigma (Rattus norvegicus, UniProt Q9R0C9); test: Receptor binding assay, Sigma (3H-pentazocine); set-up: species or system male Wistar rat; settings: for Ki: Sigma, 3H-pentazocine 3.0 nM, cerebellum
T1 construct: from tissue; host or cells: male Wistar rat cerebellum, membrane fraction
Protocol: (§1) The different brain regions of 120-200 g male Wistar rats were used for receptor binding assays except for 5-HT2c receptors where binding studies were performed on porcine choroid plexus. Protein content of the membrane fraction was determined as described by Lowry [Lowry, O. H., Rosebrough, M. J., Farr, A. L. and Randall, R. Y.: J. Biol. Chem., 193: 265-275, 1951].
Sigma ^3 H-pentazocine cerebellum haloperidol Costa B. R. et
3.0 nM (10 μM) al., Febs Lett.,

D1 = biological target: T2, D1 (Rattus norvegicus, UniProt P18901); test: Receptor binding assay, D1 (3H-SCH 23390); set-up: species or system male Wistar rat; settings: 3H-SCH 23390 0.78 Nm, striatum
T2 construct: from tissue; host or cells: male Wistar rat striatum, membrane fraction
Protocol: as §1
D1 ^3 H-SCH 23390 striatum cis- Hietala J. et
0.78 Nm flupentixol al., Neurosci.

5-HT1A = biological target: T3, 5-HT1A (Rattus norvegicus, UniProt P19327); test: Receptor binding assay, 5-HT1A (3H-8-OH-DPAT); set-up: species or system male Wistar rat; settings: 3H-8-OH-DPAT 0.7 nM, frontal cortex
T3 construct: from tissue; host or cells: male Wistar rat frontal cortex, membrane fraction
T3 sequence (P19327 1-422): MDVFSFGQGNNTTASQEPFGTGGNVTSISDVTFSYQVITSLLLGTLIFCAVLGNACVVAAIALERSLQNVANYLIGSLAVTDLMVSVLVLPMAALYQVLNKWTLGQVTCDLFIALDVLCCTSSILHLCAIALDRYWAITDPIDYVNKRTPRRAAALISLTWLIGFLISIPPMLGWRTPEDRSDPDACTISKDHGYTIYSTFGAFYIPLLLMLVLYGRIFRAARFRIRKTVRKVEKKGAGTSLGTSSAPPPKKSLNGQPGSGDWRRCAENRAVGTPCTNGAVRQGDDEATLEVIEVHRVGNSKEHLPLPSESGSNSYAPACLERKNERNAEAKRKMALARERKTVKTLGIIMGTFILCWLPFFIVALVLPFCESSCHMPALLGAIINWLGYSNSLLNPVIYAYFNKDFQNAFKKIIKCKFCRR
Protocol: as §1
frontal 5-HT Peroutka, S.
0.7 nM cortex (10 μM) J. J.

[1] = Inhibition of spontaneous motor activity; type: in vivo, mice; settings: for ED50: Mus musculus, 1 h, treated 60 minutes prior to the test, ID50 by linear regression analysis
Protocol: Inhibition of Spontaneous Motor Activity
Spontaneous motor activity was measured as described earlier [Borsy et al., Arch. Int. Pharmacodyn. 124: 1-, 1960.] in a 10 box apparatus (Dews) 3--3 mice in each compartment. Mice were treated either with test compounds or with vehiculum 60 minutes prior to the test. The number of interruptions of the infrared light beams was counted, ID50 values were calculated by linear regression analysis (Table IV).

D2 = biological target: T4, D2 (Rattus norvegicus, UniProt P61169); test: Receptor binding assay, D2 (3H-spiperone); set-up: species or system male Wistar rat; settings: 3H-spiperone 0.5 nM, striatum
T4 construct: from tissue; host or cells: male Wistar rat striatum, membrane fraction
Protocol: as §1
D2 ^3 H-spiperone striatum butaclamol Leff, S. et al.,

animal or person = type: in vivo, male NMRI mice; settings: for ED50: Mus musculus, po, 1 h, read-out: ED50, potentiation of hexobarbital induced narcosis
Protocol: Potentiation of Hexobarbital Induced Narcosis
Male NMRI mice weighing 20-25 g were treated p.o. with the test compound or with vehiculum in 20 ml/kg volume 60 minutes prior to the iv. injection of 40 mg/kg (10 ml/kg) hexobarbital. The sleeping animals were placed on a flat surface lying on their left side and the accurate sleeping and awakening times were recorded. The animals were considered to be awaken when they rolled up from their side.
Sleeping times 2.5 times higher than the average of the control group were considered as criterion for potentiation (cut up method), results were expressed as percent increase compared to control values, ED50 values were calculated from the dose response curves according to Litchfield-Wilcoxon.

5-HT2A = biological target: T5, 5-HT2A (Rattus norvegicus, UniProt P14842); test: Receptor binding assay, 5-HT2A (3H-ketanserin); set-up: species or system male Wistar rat; settings: 3H-ketanserin 1.0 nM, frontal cortex
T5 construct: from tissue; host or cells: male Wistar rat frontal cortex, membrane fraction
Protocol: as §1
5-HT2A ^3 H-ketanserin frontal cyprohepta- Leysen, J. E.
1.0 nM cortex dine et al.: Mol.

5-HT2C [2] = biological target: T6, 5-HT2C (Sus scrofa, UniProt K7GSR7); test: biochemical; type: binding, porcine
T6 construct: from tissue; host or cells: porcine choroid plexus
T6 sequence (K7GSR7 1-457): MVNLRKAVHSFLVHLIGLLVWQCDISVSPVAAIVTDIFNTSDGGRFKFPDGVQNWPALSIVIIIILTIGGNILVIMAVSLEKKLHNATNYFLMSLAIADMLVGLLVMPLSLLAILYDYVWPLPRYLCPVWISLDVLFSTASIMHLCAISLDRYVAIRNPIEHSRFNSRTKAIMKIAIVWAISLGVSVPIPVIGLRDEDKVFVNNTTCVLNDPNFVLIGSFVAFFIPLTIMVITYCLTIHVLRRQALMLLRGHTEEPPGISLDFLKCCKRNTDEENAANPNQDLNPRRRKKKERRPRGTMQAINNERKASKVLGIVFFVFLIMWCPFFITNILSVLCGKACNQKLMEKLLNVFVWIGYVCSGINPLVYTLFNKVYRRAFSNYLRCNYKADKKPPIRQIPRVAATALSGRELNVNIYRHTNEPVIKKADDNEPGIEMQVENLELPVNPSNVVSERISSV
Protocol: as §1
(§2) 5-HT2C ^3 H-mesulergin choroid mianserin Pazos, A. et
(§3) 1.0 nM plexus (1 μM) al. Eur. J.

5-HT2C [3] = test: biochemical; type: binding, porcine; settings: among 5-HT receptors
Protocol: as §1, §2, §3

[4] = Inhibition of mCPP induced anxiety (light-dark apparatus); type: in vivo, male Wistar rats; settings: for minimal effective dose: Rattus norvegicus, ip, treated twenty minutes before mCPP s.c., read-out: MED (minimal effective dose), inhibition of mCPP induced anxiety; for effect on mCPP induced anxiety (in words): rat model, Compound A up to 3.0 mg/kg i.p.
Protocol: The tests were carried out on male Wistar rats weighing 160-220 g according to Kennett [Kennett, G. A., Whitton, P., Shah, K. and Curzon, G. Eur. J. Pharmacol., 164: 445-454, 1989.]. The animals were treated either with the test compound or with vehiculum (0.4% methyl cellulose solution). Twenty minutes later either mCPP (m-chlorophenyl-piperazin) or physiological saline was administered subcutaneously. The animals were kept in the dark for additional 20 minutes, then they were placed into the light-dark apparatus (Omnitech, Digiscan, Model RXYZCM16) and their motor activity was recorded for five minutes. The testbox consisted of one dark and one lit compartment of the same size (39×20×29 cm) with an 8×8 gate providing free passage for the animals between the two compartments. The lit area was illuminated by a 40 W red light bulb 30 cm above the floor. Motor activity was recorded as the number of interruptions of the infrared light beams (16 beams 2 cm and 16 beams 8 cm above the floor). The number of crossing in the lit compartment was considered as the measure of antagonistic effect on mCPP induced anxiety. Data were statistically analyzed by one way ANOVA followed by Dunnet's t-test.

T1 sequence (Q9R0C9 whole entry): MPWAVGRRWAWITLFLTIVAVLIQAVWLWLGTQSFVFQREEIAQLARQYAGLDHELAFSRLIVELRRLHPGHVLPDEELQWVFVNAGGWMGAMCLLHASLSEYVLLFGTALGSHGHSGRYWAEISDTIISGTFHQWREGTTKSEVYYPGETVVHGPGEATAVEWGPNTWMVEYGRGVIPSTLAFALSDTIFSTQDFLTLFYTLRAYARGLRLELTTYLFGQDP
T5 sequence (P14842 whole entry): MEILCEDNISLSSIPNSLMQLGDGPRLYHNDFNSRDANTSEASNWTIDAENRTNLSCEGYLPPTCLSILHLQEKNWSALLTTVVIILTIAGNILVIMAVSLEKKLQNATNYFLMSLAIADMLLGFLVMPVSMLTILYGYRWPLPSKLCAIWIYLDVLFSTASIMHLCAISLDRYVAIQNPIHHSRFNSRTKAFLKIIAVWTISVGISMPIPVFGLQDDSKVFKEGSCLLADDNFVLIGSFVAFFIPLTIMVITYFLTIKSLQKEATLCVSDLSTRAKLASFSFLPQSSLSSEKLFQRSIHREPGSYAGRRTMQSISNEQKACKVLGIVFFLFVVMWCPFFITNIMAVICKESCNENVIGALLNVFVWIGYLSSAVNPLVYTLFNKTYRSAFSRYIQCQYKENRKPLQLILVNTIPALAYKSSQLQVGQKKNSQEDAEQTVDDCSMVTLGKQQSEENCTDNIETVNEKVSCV
T4 sequence (P61169 whole entry): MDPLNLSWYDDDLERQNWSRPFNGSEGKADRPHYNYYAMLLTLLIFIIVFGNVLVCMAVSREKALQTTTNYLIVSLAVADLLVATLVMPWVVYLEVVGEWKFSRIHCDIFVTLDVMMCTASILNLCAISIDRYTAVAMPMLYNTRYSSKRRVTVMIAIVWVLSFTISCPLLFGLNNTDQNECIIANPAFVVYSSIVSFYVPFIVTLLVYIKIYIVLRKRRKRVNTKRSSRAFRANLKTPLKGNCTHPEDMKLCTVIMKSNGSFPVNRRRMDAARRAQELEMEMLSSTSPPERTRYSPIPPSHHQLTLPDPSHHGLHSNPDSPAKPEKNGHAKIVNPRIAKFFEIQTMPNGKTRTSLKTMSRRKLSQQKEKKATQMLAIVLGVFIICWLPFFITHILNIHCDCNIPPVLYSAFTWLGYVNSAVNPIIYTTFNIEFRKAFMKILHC
T2 sequence (P18901 whole entry): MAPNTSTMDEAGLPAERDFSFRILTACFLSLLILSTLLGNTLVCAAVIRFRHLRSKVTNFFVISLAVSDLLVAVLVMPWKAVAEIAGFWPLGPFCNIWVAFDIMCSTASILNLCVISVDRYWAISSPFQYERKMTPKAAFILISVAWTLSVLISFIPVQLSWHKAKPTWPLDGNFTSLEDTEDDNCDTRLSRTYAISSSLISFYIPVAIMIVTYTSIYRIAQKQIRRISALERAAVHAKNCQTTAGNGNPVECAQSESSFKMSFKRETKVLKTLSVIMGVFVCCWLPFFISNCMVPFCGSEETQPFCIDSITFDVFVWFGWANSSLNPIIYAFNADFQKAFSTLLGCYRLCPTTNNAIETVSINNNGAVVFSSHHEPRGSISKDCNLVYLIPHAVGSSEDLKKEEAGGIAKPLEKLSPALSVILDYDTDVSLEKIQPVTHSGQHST

Structure (SMILES)	minimal effective dose (Elevated plus-maze test)	effect in the elevated plus maze test (in words) (Elevated plus-maze test)	binding at sigma receptors (in words) (Sigma)	Ki (Sigma)	Ki (D1)	Ki (5-HT1A)	ED50 [1]	Ki (D2)	ED50 (animal or person)	Ki (5-HT2A)	Ki (5-HT2C [2])	selectivity of binding among 5-HT receptors (in words) (5-HT2C [3])	minimal effective dose [4]	effect on mCPP induced anxiety (in words) [4]	inhibition of spontaneous motor activity (in words) ([1]; sedato-hypnotic side effect, compared to Compound B)	potentiation of hexobarbital induced narcosis (in words) (animal or person; mouse, in vivo)
CN(C)CCO[C@]1(c2ccccc2)C[C@H]2CC[C@]1(C)C2(C)C [Compound B, (1R,2S,4R)-(-)-2-phenyl-2-dimethylaminoethoxy-1,7,7-trimethyl-bicyclo[2.2.1]heptane-fumarate, reference compound]	> 10 mg/kg	did not show any effect	shows significant binding at sigma receptors	52 nM	> 1 µM	> 10 µM	31.5 mg/kg	> 100 nM	0.5 mg/kg	35 nM	9 nM	not selective at 2C	0.5 mg/kg	significantly antagonized the mCPP induced anxiety		
CNCCO[C@]1(c2ccccc2)C[C@H]2CC[C@]1(C)C2(C)C [Compound A, (1R,2S,4R)-(-)-2-phenyl-2-methylaminoethoxy-1,7,7-trimethyl-bicyclo[2.2.1]heptane-fumarate]	1 mg/kg	effective in the elevated plus maze test	does not	> 100 nM	10 µM	> 10 µM	57 mg/kg	> 100 nM	4 mg/kg	> 100 nM	20 nM	binds only to 2C	> 3 mg/kg	completely ineffective up to 3.0 mg/kg i.p.	inhibited the spontaneous motor activity in higher doses only	potentiated the hexobarbital induced narcosis to a lesser extent
